Laboratory results as given in patent US20020026053A1, “Novel 3-(substituted) -2- indolinones compounds and use thereof as inhibitors of protein kinase activity” (priority 1997, published 2002).

tested on: FLK-1 receptor; assay: FLK-1 Assay (cellular/catalytic ELISA, VEGF-stimulated phosphotyrosine); format: cell-based; design: concentration or dose not given beside the values
Summary of the method: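 NIH3T3 C7#3 cells engineered to express Flk-1 were serum-starved overnight (0.1% FBS), then exposed to compound for 2 h at 37 °C (final dilution 1:200, 0.5% DMSO) before VEGF stimulation. Lysates captured on anti-FLK-1 antiserum plates; phosphotyrosine detected by UB40 antibody/POD-ABTS ELISA versus untreated controls.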

First: CCOC(=O)c1c(C)[nH]c(C=C2C(=O)Nc3c(Br)cc(Br)c(C)c32)c1C [10718/H02]
Second: CCOC(=O)c1cc(C=C2C(=O)Nc3c(Br)cc(Br)c(C)c32)oc1C [10718/H06]
The “Flk Kinase % Inhibition (P.110)” value of the first is lower: −1.4% for the first, 18.2% for the second.

Compared with `COc1cc(Br)c(O)c(C=C2C(=O)Nc3c(Br)cc(Br)c(C)c32)c1` [10718/H03], `Cc1c(Br)ccc2c1C(=Cc1cc(Br)cc(Br)c1O)C(=O)N2` [10734/C07] is higher in “Flk Kinase % Inhibition (P.110)” value: −5.0% for the first, −2.7% for the second.

Going from `Cc1c(Br)cc(Br)c2c1C(=Cc1ccc3ccccc3c1O)C(=O)N2` [10718/H04] to `CCOc1cccc(C=C2C(=O)Nc3c(Br)cc(Br)c(C)c32)c1O` [10734/H02], the “Flk Kinase % Inhibition (P.110)” value rises from −5.7% to 0.5%.

First: CCOC(=O)CCc1c(C(=O)OCC)[nH]c(C=C2C(=O)Nc3c(Br)cc(Br)c(C)c32)c1CC(=O)OCC [10718/H05]
Second: COC(=O)c1[nH]c(C)c(C=C2C(=O)Nc3c(Br)cc(Br)c(C)c32)c1C(=O)OC [10718/H07]
The “Flk Kinase % Inhibition (P.110)” value of the first is higher: 1.0% for the first, −3.0% for the second.

First: Cc1c(Br)cc(Br)c2c1C(=Cc1ccc(Cl)c([N+](=O)[O-])c1)C(=O)N2 [10718/H08]
Second: Cc1c(Br)ccc2c1C(=Cc1ccc(O)c(Br)c1)C(=O)N2 [10734/C09]
The “Flk Kinase % Inhibition (P.110)” value of the first is higher: −0.5% for the first, −13.3% for the second.

Going from `CCOc1cccc(C=C2C(=O)Nc3c(Br)cc(Br)cc32)c1O` [10734/A02] to `O=C1Nc2c(Br)cc(Br)cc2C1=Cc1cccc(F)c1O` [10734/A08], the “Flk Kinase % Inhibition (P.110)” value falls from 4.1% to 0.1%.

Compared with `O=C1Nc2c(Br)cc(Br)cc2C1=Cc1cc(Cl)cc(Cl)c1O` [10734/A03], `O=C1Nc2c(Br)cc(Br)cc2C1=Cc1cc(Cl)ccc1O` [10734/A04] is lower in “Flk Kinase % Inhibition (P.110)” value: 10.1% for the first, 0.6% for the second.

First: CCN(CC)c1ccc(C=C2C(=O)Nc3c(Br)cc(Br)cc32)c(O)c1 [10734/A05]
Second: CCN(CC)c1ccc(C=C2C(=O)Nc3ccc(Br)c(C)c32)c(O)c1 [10734/C05]
The “Flk Kinase % Inhibition (P.110)” value of the first is higher: 9.1% for the first, −10.3% for the second.

First: O=C1Nc2c(Br)cc(Br)cc2C1=Cc1ccc([N+](=O)[O-])cc1 [10734/A06]
Second: CC(C)(C)c1ccc(C=C2C(=O)Nc3c(Br)cc(Br)cc32)cc1 [10734/A10]
The “Flk Kinase % Inhibition (P.110)” value of the first is lower: −6.4% for the first, 4.4% for the second.

First: O=C1Nc2c(Br)cc(Br)cc2C1=Cc1cc(Br)cc(Br)c1O [10734/A07]
Second: O=C1Nc2c(Br)cc(Br)cc2C1=Cc1ccc(O)c(Br)c1 [10734/A09]
The “Flk Kinase % Inhibition (P.110)” value of the first is lower: −9.4% for the first, −7.9% for the second.

`O=C1Nc2c(Br)cc(Br)cc2C1=Cc1ccc(Br)s1` [10734/A11] and `Cc1c(Br)ccc2c1C(=Cc1ccc(Br)s1)C(=O)N2` [10734/C11] are the same in “Flk Kinase % Inhibition (P.110)” value: 6.3% for the first, 6.3% for the second.

First: CCOc1cccc(C=C2C(=O)Nc3ccc(I)cc32)c1O [10734/B02]
Second: CCOc1cccc(C=C2C(=O)Nc3ccc(CCCl)cc32)c1O [10734/G02]
The “Flk Kinase % Inhibition (P.110)” value of the first is higher: 8.5% for the first, 1.5% for the second.

Compared with `O=C1Nc2ccc(I)cc2C1=Cc1cc(Cl)cc(Cl)c1O` [10734/B03], `O=C1Nc2ccc(CCCl)cc2C1=Cc1cc(Cl)cc(Cl)c1O` [10734/G03] is lower in “Flk Kinase % Inhibition (P.110)” value: 21.7% for the first, 18.7% for the second.

First: O=C1Nc2ccc(I)cc2C1=Cc1cc(Cl)ccc1O [10734/B04]
Second: O=C1Nc2ccc(I)cc2C1=Cc1cccc(F)c1O [10734/B08]
The “Flk Kinase % Inhibition (P.110)” value of the first is higher: 2.8% for the first, −0.5% for the second.

Going from `CCN(CC)c1ccc(C=C2C(=O)Nc3ccc(I)cc32)c(O)c1` [10734/B05] to `CCN(CC)c1ccc(C=C2C(=O)Nc3ccc(CCCl)cc32)c(O)c1` [10734/G05], the “Flk Kinase % Inhibition (P.110)” value rises from −2.3% to 7.4%.

First: O=C1Nc2ccc(I)cc2C1=Cc1ccc([N+](=O)[O-])cc1 [10734/B06]
Second: O=C1Nc2ccc(CCCl)cc2C1=Cc1ccc([N+](=O)[O-])cc1 [10734/G06]
The “Flk Kinase % Inhibition (P.110)” value of the first is lower: −0.9% for the first, 16.5% for the second.

Going from `O=C1Nc2ccc(I)cc2C1=Cc1cc(Br)cc(Br)c1O` [10734/B07] to `O=C1Nc2ccc(CCCl)cc2C1=Cc1cc(Br)cc(Br)c1O` [10734/G07], the “Flk Kinase % Inhibition (P.110)” value rises from 9.1% to 21.9%.

Going from `O=C1Nc2ccc(I)cc2C1=Cc1ccc(O)c(Br)c1` [10734/B09] to `O=C1Nc2ccc(CCCl)cc2C1=Cc1ccc(O)c(Br)c1` [10734/G09], the “Flk Kinase % Inhibition (P.110)” value rises from −32.3% to 8.5%.

First: CC(C)(C)c1ccc(C=C2C(=O)Nc3ccc(I)cc32)cc1 [10734/B10]
Second: CC(C)(C)c1ccc(C=C2C(=O)Nc3ccc(CCCl)cc32)cc1 [10734/G10]
The “Flk Kinase % Inhibition (P.110)” value of the first is higher: 15.7% for the first, 10.8% for the second.

Going from `O=C1Nc2ccc(I)cc2C1=Cc1ccc(Br)s1` [10734/B11] to `O=C1Nc2ccc(CCCl)cc2C1=Cc1ccc(Br)s1` [10734/G11], the “Flk Kinase % Inhibition (P.110)” value falls from 12.6% to 8.7%.

First: CCOc1cccc(C=C2C(=O)Nc3ccc(Br)c(C)c32)c1O [10734/C02]
Second: Cc1c(Br)ccc2c1C(=Cc1cccc(F)c1O)C(=O)N2 [10734/C08]
The “Flk Kinase % Inhibition (P.110)” value of the first is higher: −3.9% for the first, −34.2% for the second.

Compared with `Cc1c(Br)ccc2c1C(=Cc1cc(Cl)cc(Cl)c1O)C(=O)N2` [10734/C03], `Cc1c(Br)ccc2c1C(=Cc1cc(Cl)ccc1O)C(=O)N2` [10734/C04] is lower in “Flk Kinase % Inhibition (P.110)” value: −5.6% for the first, −37.6% for the second.

Compared with `Cc1c(Br)ccc2c1C(=Cc1ccc([N+](=O)[O-])cc1)C(=O)N2` [10734/C06], `Cc1c(Br)ccc2c1C(=Cc1ccc(C(C)(C)C)cc1)C(=O)N2` [10734/C10] is higher in “Flk Kinase % Inhibition (P.110)” value: −1.7% for the first, 10.1% for the second.

Compared with `CCOc1cccc(C=C2C(=O)Nc3ccc(S(=O)(=O)NC)cc32)c1O` [10734/D02], `CNS(=O)(=O)c1ccc2c(c1)C(=Cc1cccc(F)c1O)C(=O)N2` [10734/D08] is higher in “Flk Kinase % Inhibition (P.110)” value: −11.5% for the first, 2.5% for the second.

Compared with `CNS(=O)(=O)c1ccc2c(c1)C(=Cc1cc(Cl)cc(Cl)c1O)C(=O)N2` [10734/D03], `CNS(=O)(=O)c1ccc2c(c1)C(=Cc1cc(Cl)ccc1O)C(=O)N2` [10734/D04] is lower in “Flk Kinase % Inhibition (P.110)” value: 17.4% for the first, 6.1% for the second.

Compared with `CCN(CC)c1ccc(C=C2C(=O)Nc3ccc(S(=O)(=O)NC)cc32)c(O)c1` [10734/D05], `CCN(CC)c1ccc(C=C2C(=O)Nc3ccc(S(=O)(=O)N4CCOCC4)cc32)c(O)c1` [10734/F05] is higher in “Flk Kinase % Inhibition (P.110)” value: 2.4% for the first, 9.8% for the second.

Compared with `CNS(=O)(=O)c1ccc2c(c1)C(=Cc1ccc([N+](=O)[O-])cc1)C(=O)N2` [10734/D06], `CNS(=O)(=O)c1ccc2c(c1)C(=Cc1ccc(C(C)(C)C)cc1)C(=O)N2` [10734/D10] is higher in “Flk Kinase % Inhibition (P.110)” value: 0.0% for the first, 11.1% for the second.

Going from `CNS(=O)(=O)c1ccc2c(c1)C(=Cc1cc(Br)cc(Br)c1O)C(=O)N2` [10734/D07] to `CNS(=O)(=O)c1ccc2c(c1)C(=Cc1ccc(O)c(Br)c1)C(=O)N2` [10734/D09], the “Flk Kinase % Inhibition (P.110)” value falls from 14.7% to −11.6%.

Going from `CNS(=O)(=O)c1ccc2c(c1)C(=Cc1ccc(Br)s1)C(=O)N2` [10734/D11] to `O=C1Nc2ccc(S(=O)(=O)N3CCOCC3)cc2C1=Cc1ccc(Br)s1` [10734/F11], the “Flk Kinase % Inhibition (P.110)” value rises from 9.8% to 13.3%.

Compared with `CCOc1cccc(C=C2C(=O)Nc3ccc(S(=O)(=O)Nc4ccc(C(F)(F)F)cc4)cc32)c1O` [10734/E02], `O=C1Nc2ccc(S(=O)(=O)Nc3ccc(C(F)(F)F)cc3)cc2C1=Cc1cccc(F)c1O` [10734/E08] is higher in “Flk Kinase % Inhibition (P.110)” value: 7.9% for the first, 26.6% for the second.

Compared with `O=C1Nc2ccc(S(=O)(=O)Nc3ccc(C(F)(F)F)cc3)cc2C1=Cc1cc(Cl)cc(Cl)c1O` [10734/E03], `O=C1Nc2ccc(S(=O)(=O)Nc3ccc(C(F)(F)F)cc3)cc2C1=Cc1cc(Cl)ccc1O` [10734/E04] is lower in “Flk Kinase % Inhibition (P.110)” value: 26.9% for the first, 10.7% for the second.

Compared with `CCN(CC)c1ccc(C=C2C(=O)Nc3ccc(S(=O)(=O)Nc4ccc(C(F)(F)F)cc4)cc32)c(O)c1` [10734/E05], `O=C1Nc2ccc(S(=O)(=O)Nc3ccc(C(F)(F)F)cc3)cc2C1=Cc1ccc(O)c(Br)c1` [10734/E09] is lower in “Flk Kinase % Inhibition (P.110)” value: 10.6% for the first, 8.0% for the second.

Compared with `O=C1Nc2ccc(S(=O)(=O)Nc3ccc(C(F)(F)F)cc3)cc2C1=Cc1ccc([N+](=O)[O-])cc1` [10734/E06], `CC(C)(C)c1ccc(C=C2C(=O)Nc3ccc(S(=O)(=O)Nc4ccc(C(F)(F)F)cc4)cc32)cc1` [10734/E10] is lower in “Flk Kinase % Inhibition (P.110)” value: 28.4% for the first, 18.5% for the second.

Going from `O=C1Nc2ccc(S(=O)(=O)Nc3ccc(C(F)(F)F)cc3)cc2C1=Cc1cc(Br)cc(Br)c1O` [10734/E07] to `O=C1Nc2ccc(S(=O)(=O)Nc3ccc(C(F)(F)F)cc3)cc2C1=Cc1ccc(Br)s1` [10734/E11], the “Flk Kinase % Inhibition (P.110)” value falls from 27.9% to 19.2%.

Compared with `CCOc1cccc(C=C2C(=O)Nc3ccc(S(=O)(=O)N4CCOCC4)cc32)c1O` [10734/F02], `O=C1Nc2ccc(S(=O)(=O)N3CCOCC3)cc2C1=Cc1cccc(F)c1O` [10734/F08] is lower in “Flk Kinase % Inhibition (P.110)” value: 6.2% for the first, 4.8% for the second.

Going from `O=C1Nc2ccc(S(=O)(=O)N3CCOCC3)cc2C1=Cc1cc(Cl)cc(Cl)c1O` [10734/F03] to `O=C1Nc2ccc(S(=O)(=O)N3CCOCC3)cc2C1=Cc1cc(Cl)ccc1O` [10734/F04], the “Flk Kinase % Inhibition (P.110)” value falls from 4.2% to −2.6%.

Going from `O=C1Nc2ccc(S(=O)(=O)N3CCOCC3)cc2C1=Cc1ccc([N+](=O)[O-])cc1` [10734/F06] to `CC(C)(C)c1ccc(C=C2C(=O)Nc3ccc(S(=O)(=O)N4CCOCC4)cc32)cc1` [10734/F10], the “Flk Kinase % Inhibition (P.110)” value rises from 11.0% to 14.8%.

First: O=C1Nc2ccc(S(=O)(=O)N3CCOCC3)cc2C1=Cc1cc(Br)cc(Br)c1O [10734/F07]
Second: O=C1Nc2ccc(S(=O)(=O)N3CCOCC3)cc2C1=Cc1ccc(O)c(Br)c1 [10734/F09]
The “Flk Kinase % Inhibition (P.110)” value of the first is higher: 6.6% for the first, −3.7% for the second.

First: O=C1Nc2ccc(CCCl)cc2C1=Cc1cc(Cl)ccc1O [10734/G04]
Second: O=C1Nc2ccc(CCCl)cc2C1=Cc1cccc(F)c1O [10734/G08]
The “Flk Kinase % Inhibition (P.110)” value of the first is lower: −1.1% for the first, 11.6% for the second.
